The text below walks through data of US6545007B2, “Methods for inhibiting the transmission of HIV using topically applied substituted 6-benzyl-4-oxopyrimidines” (Idenix (Cayman) Limited, priority 2000, dated 2003).

The CC50 is the concentration at which the toxic effect on the cells reaches its halfway point. Higher therefore signals lower toxicity to the cells. One may read the EC50 as the concentration giving half of the maximal effect.

Like-named read-outs stand apart in the source and are kept apart here.

The test system of one series is mock-infected MT-4 cells. Kind of series: Cytotoxicity: viability of mock-infected cells by the MTT method. It counts as cell-based, human. The method in brief: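 Mock-infected MT-4 cells (1×10^4 per well) in RPMI 1640 with 10% FCS exposed to various compound concentrations for 4 days at 37° C, 5% CO2, in parallel with the antiviral assay. Viable cells counted by MTT method.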

A further series has as its system HIV-1 (IIIB strain). It counts as cell-based. The conditions noted are these: for EC50: anti-HIV-1 activity. The method in brief: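 MT-4 cells (1×10^4/well) were infected with 100 CCID50 HIV-1 IIIB in presence of compound and incubated 4 days at 37 °C. Protection from virus-induced cytopathicity was scored by MTT viability, with cytotoxicity measured in parallel on mock-infected cells.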

The test system of another series is HIV-1. Particulars: MT-4 cells infected with very high virus load; p24 ELISA of cell-free supernatants at 4 day intervals for 4 weeks. (In general: ELISA stands for enzyme-linked immunosorbent assay.)
The mark [1] stands for this setting: acutely infected MT-4 cells, MTT.

In turn, `CCN(CC)c1nc(Cc2c(F)cccc2F)cc(=O)[nH]1` [MC 1202] showed a cytotoxic concentration (CC50) in the series with mock-infected MT-4 cells (MTT) above 200000 nM. The compound also returned a half-maximal effective concentration (EC50) with HIV-1 (IIIB strain) (setting [1]) of 260 nM.
As to `Cc1c(Cc2c(F)cccc2F)nc(N2CCN(C)CC2)[nH]c1=O` [MC 1203], in the series on mock-infected MT-4 cells (MTT), the 50% cytotoxic concentration (CC50) is above 200000 nM. The half-maximal effective concentration (EC50) with HIV-1 (IIIB strain) (setting [1]) is 360 nM.
For `CCCN(CCC)c1nc(Cc2c(F)cccc2F)cc(=O)[nH]1` [MC 1204], in that order: above 200000 nM and 3800 nM.
Regarding `Cc1c(Cc2c(F)cccc2F)nc(N2CCOCC2)[nH]c1=O` [MC 1205], the CC50 in the series on mock-infected MT-4 cells (MTT) was above 200000 nM. In the series with HIV-1 (IIIB strain) (setting [1]), this compound came in with an EC50 of 47 nM.
In turn, `Cc1c(Cc2c(F)cccc2F)nc(N2CCSCC2)[nH]c1=O` [MC 1206] gave a half-maximal cytotoxic concentration (CC50) in the series on mock-infected MT-4 cells (MTT) above 200000 nM. Besides, in the series with HIV-1 (IIIB strain) (setting [1]), the 50% effective concentration (EC50) worked out at 90 nM.
For the compound `Cc1c(C(C)c2c(F)cccc2F)nc(N(C)C)[nH]c1=O` (stereo not shown) [MC 1220], the “concentration able to maintain a sustained reduction of p24 in the culture supernatants” value in the series on HIV-1 turned out to be 3.5 µM.
Take `Cc1c(C(C)c2c(F)cccc2F)nc(SC2CCCC2)[nH]c1=O` (stereo not shown) [MC-1047, 2-Cyclopentylthio-6-{1-(2,6-difluorophenyl)ethyl}-3,4-dihydro-5-methylpyrimidin-4(3H)-one]: in the series on mock-infected MT-4 cells, the 50% cytotoxic concentration (CC50) is above 200000 nM. The 50% effective concentration (EC50) in the series with HIV-1 (IIIB strain) (HIV-1-infected MT-4 cells) was 9 nM. Moreover, in the series on HIV-1 (IIIB strain) (selectivity index (CC50/EC50)), the SI is given as >22,222. The “concentration able to maintain a sustained reduction of p24 in the culture supernatants” value in the series with HIV-1 amounted to 10 µM.
As to `Cc1ccnc2c1NC(=O)c1cccnc1N2C1CC1` [Nevirapine, 11-cyclopropyl-5,11-dihydro-4-methyl-6H-dipyridol{3,2-b:2′,3′-e}diazepin-6-one, reference compound], the “concentration able to maintain a sustained reduction of p24 in the culture supernatants” value in the series with HIV-1 was determined as 300 µM.
